Organism: Rattus norvegicus
Test: DrugMatrix - Regimen: Daily Repeat
Type: toxicity, organism-based, Sprague-Dawley
Design: regimen Daily Repeat, gender Male, age 6-8 weeks
Details: in vivo, po, route oral GAVAGE, vehicle 100 % WATER; for ABSOLUTE BASOPHIL / ABSOLUTE EOSINOPHIL / ABSOLUTE LYMPHOCYTE / ABSOLUTE MONOCYTE / ABSOLUTE SEGMENTED NEUTROPHIL / BASOPHIL / EOSINOPHIL / ERYTHROCYTE COUNT / HEMATOCRIT / HEMOGLOBIN / LEUKOCYTE COUNT / LYMPHOCYTE / MEAN CORPUSCULAR HEMOGLOBIN / MEAN CORPUSCULAR HEMOGLOBIN CONCENTRATION / MEAN CORPUSCULAR VOLUME / MONOCYTE / NEUTROPHIL / NUCLEATED RED BLOOD CELLS / PLATELET COUNT: tissue Blood; for ALANINE AMINOTRANSFERASE / ALBUMIN / ALKALINE PHOSPHATASE / ASPARTATE AMINOTRANSFERASE / BLOOD UREA NITROGEN / CARBON DIOXIDE / CHLORIDE / CHOLESTEROL / CREATINE PHOSPHOKINASE / CREATININE / GLUCOSE / LACTATE DEHYDROGENASE / LIPASE / PHOSPHORUS / POTASSIUM / SODIUM / TOTAL BILIRUBIN / TOTAL PROTEIN / URIC ACID: tissue Plasma
[1] = 0 mg/kg, 72 h, dose level Control, time 3 day
[2] = 0 mg/kg, 120 h, dose level Control, time 5 day
[3] = 160 mg/kg, 72 h, dose level Low, time 3 day

In the case of `N[C@@H](Cc1ccc(O)c(O)c1)C(=O)O` [LEVODOPA], the “ABSOLUTE BASOPHIL” value [1] is reported as 0 CELLS/uL, the “ABSOLUTE EOSINOPHIL” value [1] is reported as 86.33 CELLS/uL and the “ABSOLUTE LYMPHOCYTE” value [1] is reported as 12090.17 CELLS/uL. For the same molecule, the “ABSOLUTE MONOCYTE” value [1] was 166.67 CELLS/uL, the “ABSOLUTE SEGMENTED NEUTROPHIL” value [1] was 1090.17 CELLS/uL and the BASOPHIL [1] was 0%. For the same molecule, the EOSINOPHIL [1] was 0.67%, the “ERYTHROCYTE COUNT” value [1] was 5.57 x10E6/uL and the HEMATOCRIT [1] was 35.33%. For the same molecule, the HEMOGLOBIN [1] was 13.83 G/DL, the “LEUKOCYTE COUNT” value [1] was 13.43 x10E3/uL and the LYMPHOCYTE [1] was 89.83%. The “MEAN CORPUSCULAR HEMOGLOBIN” value [1] was 24.88 pg, the “MEAN CORPUSCULAR HEMOGLOBIN CONCENTRATION” value [1] was 39.15 G/DL and the “MEAN CORPUSCULAR VOLUME” value [1] was 63.52 fL. For the same molecule, the MONOCYTE [1] was 1.17%, the NEUTROPHIL [1] was 8.33% and the “NUCLEATED RED BLOOD CELLS” value [1] was 0 /100WBC. The “PLATELET COUNT” value [1] was 1181.33 x10E3/uL, the “ALANINE AMINOTRANSFERASE” value [1] was 48.33 u/L and the ALBUMIN [1] was 4.1 G/DL. The “ALKALINE PHOSPHATASE” value [1] was 395 u/L, the “ASPARTATE AMINOTRANSFERASE” value [1] was 81.83 u/L and the “BLOOD UREA NITROGEN” value [1] was 15.83 mg/dL. The “CARBON DIOXIDE” value [1] was 24.17 mmol/L, the CHLORIDE [1] was 103.83 MEQ/L and the CHOLESTEROL [1] was 63.67 mg/dL. For the same molecule, the “CREATINE PHOSPHOKINASE” value [1] was 372.83 u/L, the CREATININE [1] was 0.18 mg/dL and the GLUCOSE [1] was 173.83 mg/dL. The “LACTATE DEHYDROGENASE” value [1] was 188.33 u/L, the LIPASE [1] was 9.5 u/L and the PHOSPHORUS [1] was 11.95 mg/dL. The POTASSIUM [1] was 5.99 MEQ/L, the SODIUM [1] was 144.43 MEQ/L and the “TOTAL BILIRUBIN” value [1] was 0.15 mg/dL. The “TOTAL PROTEIN” value [1] was 5.95 G/DL, the “URIC ACID” value [1] was 1.82 mg/dL and the “ABSOLUTE BASOPHIL” value [2] was 0 CELLS/uL. The “ABSOLUTE EOSINOPHIL” value [2] was 26.67 CELLS/uL, the “ABSOLUTE LYMPHOCYTE” value [2] was 7583.83 CELLS/uL and the “ABSOLUTE MONOCYTE” value [2] was 131.33 CELLS/uL. The “ABSOLUTE SEGMENTED NEUTROPHIL” value [2] was 674.83 CELLS/uL, the BASOPHIL [2] was 0% and the EOSINOPHIL [2] was 0.33%. For the same molecule, the “ERYTHROCYTE COUNT” value [2] was 5.78 x10E6/uL, the HEMATOCRIT [2] was 36.48% and the HEMOGLOBIN [2] was 14.03 G/DL. The “LEUKOCYTE COUNT” value [2] was 8.42 x10E3/uL, the LYMPHOCYTE [2] was 89.83% and the “MEAN CORPUSCULAR HEMOGLOBIN” value [2] was 24.3 pg. The “MEAN CORPUSCULAR HEMOGLOBIN CONCENTRATION” value [2] was 38.52 G/DL, the “MEAN CORPUSCULAR VOLUME” value [2] was 63.15 fL and the MONOCYTE [2] was 1.67%. For the same molecule, the NEUTROPHIL [2] was 8.17%, the “NUCLEATED RED BLOOD CELLS” value [2] was 0 /100WBC and the “PLATELET COUNT” value [2] was 1186.67 x10E3/uL. For the same molecule, the “ALANINE AMINOTRANSFERASE” value [2] was 50.17 u/L, the ALBUMIN [2] was 4.07 G/DL and the “ALKALINE PHOSPHATASE” value [2] was 367.5 u/L. For the same molecule, the “ASPARTATE AMINOTRANSFERASE” value [2] was 81.67 u/L, the “BLOOD UREA NITROGEN” value [2] was 16.17 mg/dL and the “CARBON DIOXIDE” value [2] was 32.33 mmol/L. The CHLORIDE [2] was 101.5 MEQ/L, the CHOLESTEROL [2] was 65.33 mg/dL and the “CREATINE PHOSPHOKINASE” value [2] was 255.33 u/L. For the same molecule, the CREATININE [2] was 0.17 mg/dL, the GLUCOSE [2] was 139.33 mg/dL and the “LACTATE DEHYDROGENASE” value [2] was 95 u/L. It also gave an LIPASE [2] of 10.5 u/L, a PHOSPHORUS [2] of 10.38 mg/dL and a POTASSIUM [2] of 6.11 MEQ/L. The SODIUM [2] was 145.55 MEQ/L, the “TOTAL BILIRUBIN” value [2] was 0.17 mg/dL and the “TOTAL PROTEIN” value [2] was 5.98 G/DL. The “URIC ACID” value [2] was 0.93 mg/dL, the “ABSOLUTE BASOPHIL” value [3] was 0 CELLS/uL and the “ABSOLUTE EOSINOPHIL” value [3] was 48 CELLS/uL. For the same molecule, the “ABSOLUTE LYMPHOCYTE” value [3] was 13173.67 CELLS/uL, the “ABSOLUTE MONOCYTE” value [3] was 48 CELLS/uL and the “ABSOLUTE SEGMENTED NEUTROPHIL” value [3] was 2130.33 CELLS/uL. The BASOPHIL [3] was 0%, the EOSINOPHIL [3] was 0.33% and the “ERYTHROCYTE COUNT” value [3] was 5.35 x10E6/uL. For the same molecule, the HEMATOCRIT [3] was 34.57%, the HEMOGLOBIN [3] was 13.5 G/DL and the “LEUKOCYTE COUNT” value [3] was 15.4 x10E3/uL. The LYMPHOCYTE [3] was 85.67%, the “MEAN CORPUSCULAR HEMOGLOBIN” value [3] was 25.23 pg and the “MEAN CORPUSCULAR HEMOGLOBIN CONCENTRATION” value [3] was 39.07 G/DL. The “MEAN CORPUSCULAR VOLUME” value [3] was 64.63 fL, the MONOCYTE [3] was 0.33% and the NEUTROPHIL [3] was 13.67%. The “NUCLEATED RED BLOOD CELLS” value [3] was 0 /100WBC, the “PLATELET COUNT” value [3] was 1267 x10E3/uL and the “ALANINE AMINOTRANSFERASE” value [3] was 43.67 u/L. For the same molecule, the ALBUMIN [3] was 4 G/DL, the “ALKALINE PHOSPHATASE” value [3] was 349.67 u/L and the “ASPARTATE AMINOTRANSFERASE” value [3] was 93.67 u/L. The “BLOOD UREA NITROGEN” value [3] was 15.67 mg/dL, the “CARBON DIOXIDE” value [3] was 22 mmol/L and the CHLORIDE [3] was 103.33 MEQ/L. For the same molecule, the CHOLESTEROL [3] was 61 mg/dL, the “CREATINE PHOSPHOKINASE” value [3] was 665.33 u/L and the CREATININE [3] was 0.14 mg/dL. The GLUCOSE [3] was 158.33 mg/dL, the “LACTATE DEHYDROGENASE” value [3] was 401 u/L and the LIPASE [3] was 8.67 u/L. The PHOSPHORUS [3] was 12.63 mg/dL, the POTASSIUM [3] was 5.77 MEQ/L and the SODIUM [3] was 144.43 MEQ/L. For the same molecule, the “TOTAL BILIRUBIN” value [3] was 0.2 mg/dL, the “TOTAL PROTEIN” value [3] was 5.73 G/DL and the “URIC ACID” value [3] was 1.87 mg/dL.

From ChEMBL document CHEMBL3885881, “DrugMatrix”
